How the values were obtained:
HCV RNA replication = assay: Luciferase assay of HCV RNA replication (Table 3); settings: Hepatitis C virus, read-out: Residual Luciferase activity
[1] = system: HCV genotype 2a infectious clone; assay: HCV genotype 2a infectious clone assay (Renilla luciferase); assay type: cell-based; settings: Hepatitis C virus, read-out: 2a (% activity @ 5 μM), 5 μM; % replication activity of control with no test compound
Method: The assays in parts A and B were used to generate the genotype 1b inhibitory activity and related cell toxicity (viability) data supported herein. This assay has been used to generate the genotype 2a inhibitory activity data supported herein.
(§1) 1) Wash cells once with PBS, trypsinize. […] Mix twice by pipeting. […] Make a common stock from all tubes. […] 15) Incubate for 24 hr before treatment.
(§2) 3) Repeat daily for 2 more days.

Huh7.5 cells = settings: human, 3 days
Method: as §1, §2
1) Alamar blue assay—a) Include medium for background subtraction (and also for seeing change in color easily). b) Aspirate medium. c) Make a stock of medium plus 10% Alamar blue. Total volume per well is 100 μl. d) Incubate for 2-2.5 hrs at 37° C. (or until there is a color change). c) Read plates at flex station.

| SMILES | activity at 5 µM (HCV RNA replication) [%] | activity at 10 µM (HCV RNA replication) [%] | activity at 5 µM [1] [%] | 2a cell viability (@ 5 μM) (Huh7.5 cells) [%] |
| --- | --- | --- | --- | --- |
| CN(C)CCCOc1nn(Cc2ccccc2)c2ccccc12 [Compound 184] | > 80 | 20 to 54 | – | – |
| c1ccc(Cn2ncc3ccccc32)cc1 [Compound 185] | > 80 | > 80 | – | – |
| Brc1ccc(Cn2ncc3ccccc32)cc1 [Compound 186] | > 80 | > 80 | – | – |
| Cc1ccc2c(c1)c(OCCCN(C)C)nn2Cc1ccccc1 [Compound 187] | 55 to 80 | 20 to 54 | – | – |
| Cc1ccc2c(c1)c(O)nn2Cc1ccccc1 [Compound 188] | > 80 | 20 to 54 | – | – |
| Oc1nn(Cc2ccccc2)c2ccccc12 [Compound 189] | > 80 | > 80 | – | – |
| Cl.c1ccc(Cn2nc(OCCN3CCCCC3)c3ccccc32)cc1 [Compound 190] | > 80 | 55 to 80 | – | – |
| Cc1ccc2c(c1)c(OCCN1CCCCC1)nn2Cc1ccccc1.Cl [Compound 191] | 55 to 80 | < 20 | – | – |
| Cl.c1ccc(Cn2nc(OCCCN3CCCC3)c3ccccc32)cc1 [Compound 192] | 55 to 80 | 20 to 54 | – | – |
| Cc1ccc2c(c1)c(OCCCN1CCCC1)nn2Cc1ccccc1 [Compound 193] | 20 to 54 | < 20 | – | – |
| Cl.c1ccc(Cn2nc(OCCN3CCCC3)c3ccccc32)cc1 [Compound 194] | > 80 | 55 to 80 | – | – |
| CN(C)CCOc1nn(Cc2ccccc2)c2ccccc12 [Compound 195] | > 80 | > 80 | – | – |
| Cc1ccc2c(c1)c(OCCN1CCCC1)nn2Cc1ccccc1 [Compound 196] | 55 to 80 | 20 to 54 | – | – |
| Cc1ccc2c(c1)c(OCCN(C)C)nn2Cc1ccccc1 [Compound 197] | > 80 | 20 to 54 | – | – |
| c1ccc(Cn2nc(OCCCN3CCCCC3)c3ccccc32)cc1 [Compound 198] | 20 to 54 | < 20 | – | – |
| Cc1ccc2c(c1)c(OCCCN1CCCCC1)nn2Cc1ccccc1 [Compound 199] | 20 to 54 | < 20 | – | – |
| Cc1cc2c(cnn2Cc2ccc(Cl)cc2)cc1Cl [Compound 200] | > 80 | 55 to 80 | – | – |

| SMILES | activity at 5 µM (HCV RNA replication) [%] | activity at 10 µM (HCV RNA replication) [%] | activity at 5 µM [1] [%] | 2a cell viability (@ 5 μM) (Huh7.5 cells) [%] |
| --- | --- | --- | --- | --- |
| Cc1cc2cnn(Cc3ccc(Cl)cc3)c2cc1Br [Compound 201] | > 80 | 55 to 80 | – | – |
| Cc1cc2c(cnn2Cc2ccc(Cl)cc2)cc1Br [Compound 202] | > 80 | > 80 | – | – |
| O=[N+]([O-])c1cc2cnn(Cc3ccc(Cl)cc3)c2cc1Cl [Compound 203] | > 80 | 20 to 54 | – | – |
| Cc1cc2c(cnn2Cc2ccc(Cl)cc2)cc1[N+](=O)[O-] [Compound 204] | 55 to 80 | 20 to 54 | – | – |
| Clc1ccc(Cn2ncc3cc(Br)ccc32)cc1 [Compound 205] | > 80 | 55 to 80 | – | – |
| Cc1cc2nn(Cc3ccc(Cl)cc3)cc2cc1Cl [Compound 206] | > 80 | 55 to 80 | – | – |
| Cc1cc2cn(Cc3ccc(Cl)cc3)nc2cc1Br [Compound 207] | > 80 | 55 to 80 | – | – |
| Cc1cc2nn(Cc3ccc(Cl)cc3)cc2cc1Br [Compound 208] | 55 to 80 | 20 to 54 | – | – |
| O=[N+]([O-])c1cc2cn(Cc3ccc(Cl)cc3)nc2cc1Cl [Compound 209] | > 80 | > 80 | – | – |
| Cc1cc2nn(Cc3ccc(Cl)cc3)cc2cc1[N+](=O)[O-] [Compound 210] | 20 to 54 | 20 to 54 | – | – |
| Clc1ccc(Cn2cc3cc(Br)ccc3n2)cc1 [Compound 211] | > 80 | 55 to 80 | – | – |
| FC(F)(F)c1ccc2cn(Cc3ccc(Cl)cc3)nc2c1 [Compound 212] | 55 to 80 | 20 to 54 | – | – |
| Cc1ccc2c(c1)c(OCCCN(C)C)nn2Cc1ccccc1 [EBP151] | – | – | 62 | 92 |
| c1ccc(Cn2nc(OCCN3CCCCC3)c3ccccc32)cc1 [EBP175] | – | – | 89 | 98 |
| Cc1ccc2c(c1)c(OCCN1CCCCC1)nn2Cc1ccccc1 [EBP176] | – | – | 58 | 98 |
| c1ccc(Cn2nc(OCCCN3CCCC3)c3ccccc32)cc1 [EBP177] | – | – | 53 | 100 |
